# From patent publication US20240350655A1, “THIOL-CONJUGATION WITH UNSATURATED PHOSPHORUS(V) COMPOUNDS” (FORSCHUNGSVERBUND BERLIN E.V., priority 2021, published 2024)
# Key:
# [1] = Second-order rate constant of the reaction with glutathione, fluorescent HPLC; conditions: 1 eq. glutathione (0.5 mM), 50 mM ABC buffer, 1 mM EDTA, pH 8.5
# Description: The second-order rate constant of the reaction between glutathione and EDANS-phosphinates CS265 and CS266 was determined according to the following procedure: The EDANS-phosphinate was reacted with 1 eq. of glutathione (0.5 mM) in the presence of 50 mM ABC buffer (ammonium bicarbonate buffer) and 1 mM EDTA at pH 8.5. The reactions were performed in a volume of 0.1 ml. The first sample (t=0) was drawn before the addition of glutathione. Samples were taken after 1, 2, 5, 12, 22 and 35 min (CS266) or after 30, 60, 120, 240 and 1440 min (CS265). Samples were drawn in a volume of 10 μl and immediately diluted into 200 μl of 50 mM NaOAc buffer at pH 3.5, to stop the reaction. Those samples were subjected to fluorescent HPLC analyses, injecting 50 μl each.
# eGFP C70M S147C [2] = target: T1, eGFP C70M S147C (Aequorea victoria, UniProt P42212, C70M/F64L/H231L/S147C/S65T); assay: Tandem-mass spectrometry of tryptically digested labelled eGFP; conditions: 10 eq. phosphinate, PBS pH 7.4, 10% DMSO
# T1 construct: protease cleavage site highlighted with subscripts; His-tag (N); protease cleavage site (N); made in house
# Description: At first phosphinate-1 was reacted with an eGFP mutant containing a single addressable Cys (eGFP C70M S147C). Using 10 eq. phosphinate in PBS pH 7.4 containing 10% DMSO as a co-solvent, the reaction reached completion after 30 minutes (FIG. 5d).
# 1 in PBS (30 min, r.t.) followed by purification via 0.5 mL Zeba™ Spin Desalting Columns with 7K MWCO (Thermo Fisher Scientific, USA) into phosphate-buffer (20 mM, pH 7.5). Complete labeling was verified via intact-protein MS.
# eGFP C70M S147C [3] = target: T1, eGFP C70M S147C; assay: Second-order rate constant of the reaction with eGFP, intact protein-MS; conditions: one equivalent GFP, Tris-buffer (pH 8.3), 90 μM, room-temperature
# Description: Subsequently, this new compound-class was compared with other Cys-reactive electrophiles in terms of reaction kinetics. The estimation of reaction-kinetics is particularly challenging for bis-reactive reagents because the second thiol addition interferes with the analysis. […] Consequently, 2 was reacted with one equivalent GFP in Tris-buffer (pH 8.3) at a concentration of 90 μM at room-temperature.
# Determination of the second-order rate constant of the reaction between eGFP (C70M S147C) and phosphinate 2. […] Reactions were carried out in triplicate. 90 μl eGFP (0.1 mM) were mixed with 10 μl of a 0.9 mM solution of phosphinate 2 in DMSO. Samples were drawn after 60, 90, 150, 210 and 300 minutes and analyzed via intact protein-MS. […] Calculated by the intensity of the deconvoluted mass in relation to the internal standard eGFP (C70M). […] The slope corresponds to the second order rate constant. Shown are mean and error of three independent measurements.
# T1 sequence (P42212 with tags, fused parts or gaps F64L/S65T/C70M/S147C/H231L): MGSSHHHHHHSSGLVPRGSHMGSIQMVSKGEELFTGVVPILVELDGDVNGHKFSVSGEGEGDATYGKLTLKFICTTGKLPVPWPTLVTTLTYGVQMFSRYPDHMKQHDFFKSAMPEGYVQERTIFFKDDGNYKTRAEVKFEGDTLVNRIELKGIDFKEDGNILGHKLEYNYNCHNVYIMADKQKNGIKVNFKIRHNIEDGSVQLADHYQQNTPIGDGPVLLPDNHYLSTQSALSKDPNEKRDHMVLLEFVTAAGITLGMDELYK
smiles,measurement,setting,value
"C#CP(=O)(OCC)c1cn(CCC(=O)NCCNc2cccc3c(S(=O)(=O)O)cccc23)nn1 (stereo not drawn) [CS266, EDANS-1,2,3-triazol-ethyl-ethynylphosphinate]",reaction kinetics relative to CS265,[1],roughly ten times faster than with CS265
"C#CP(=O)(C#C)OCC [compound 1, ethyl diethynyl phosphinate]",amino acids modified (MS/MS),eGFP C70M S147C [2],no amino acid other than Cys was modified
"C#CCCOP(=O)(C#C)C#C [compound 2, but-3-yn-1-yl-diethynylphosphinate]",second-order rate constant,eGFP C70M S147C [3],~0.47 M⁻¹ s⁻¹
